From patent US11208407B2, “Substituted phenyl compounds as indoleamine 2,3-dioxygenase (IDO) inhibitors” (Merck Sharp & Dohme Corp., priority 2017, dated 2021) come the findings set out here.

Assay [1] addresses T1, IDO1 (Homo sapiens, UniProt P14902). As to the kind of experiment: IDO1 Human Whole Blood Assay. In kind it is cell-based. More on the design: Human whole blood was drawn in sodium heparin coated tubes from healthy internal donors; from tissue; host or cells: Human whole blood from healthy donors, stimulated with LPS and IFNγ. The note with it: LPS and IFNγ 100 ng/mL, 18 h, kynurenine by LC/MS/MS. The protocol:
IDO1 Human Whole Blood Assay
Compounds to be tested were serially diluted in ten 3-fold steps in DMSO starting from 10 mM. 3 µL of compound dilutions or DMSO alone were then dispensed from the dilution plate into a polypropylene 96-well assay plate containing 97 µL of RPMI medium using an Echo 555 acoustic liquid handler (Labcyte). LPS (lipopolysaccharide) and IFNγ was prepared in RPMI to a 10× of final conc. (1000 ng/mL), final concentration is 100 ng/mL.
Human whole blood was drawn in sodium heparin coated tubes from healthy internal donors. 240 µL of blood was transferred to each of the wells of a v-bottom 96 well plate. 30 µL of compound was transferred from intermediate dilution plate, and incubated for 15 min. 30 μL from stimulants was then transferred to blood and mixed thoroughly. Plate was covered with breathable membrane and incubated at 37° C. for overnight (18 h).
On day 2, isotope labeled standard solutions of kunurenine and tryptophan was made in water at 10× concentration and 30 µL was added to the blood at 3 µM final concentration. The assay plates were centrifuged at 300×G for 10 min with no brake to separate plasma from red blood cells. 60 µL of plasma samples was removed without disturbing red blood cells. Plasma was diluted with RPMI medium in 1:1 ratio and proteins were precipitated out with two volumes of Acetonitrile. The plates were centrifuged at 4000×G for 60 min. 20 µL of supernatant was carefully transferred to a 384 well plate containing 40 µL of 0.1% formic acid in water and analyzed by LC/MS/MS.
LC/MS/MS analyses were performed using Thermo Fisher's LX4-TSQ Quantum Ultra system. This system consists of four Agilent binary high-performance liquid chromatography (HPLC) pumps and a TSQ Quantum Ultra triple quadrupole MS/MS instrument. For each sample, 5 µL were injected onto an Atlantis T3 column (2.1 mm×150 mm, 3 µm particle size) from Waters. The mobile phase gradient pumped at 0.8 mL/min was used to elute the analytes from the column at 25° C. The elution started at 0% B increasing linearly to 25% B at 6.5 min, holding at 25% for 1 min, re-equilibrating to 10 min. Mobile phase A consisted of 0.1% formic acid in water. Mobile phase B consisted of 0.1% of formic acid in acetonitrile. Data was acquired in positive mode using a HESI interface. The operational parameters for the TSQ Quantum Ultra instrument were a spray voltage of 4000 V, capillary temperature of 380° C., vaporizer temperature 400° C., shealth gas 60 arbitrary units, Aux gas 20 arbitrary units, tube lens 85 and collision gas 1.2 mTorr. SRM (selected-reaction monitoring) chromatograms of kynurenine (Q1: 209.2>Q3:94.0) and internal standard (Q1: 215.3>Q3:98.2) were collected for 90 sec. The peak area was integrated by Xcalibur Quan software. The ratios between the kynurenine generated in the reaction and 2D6-Kynurenine spiked-in internal standard were used to generate percentage inhibition and IC50 values. Compounds were titrated and IC50's were calculated by 4 parameter sigmoidal curve fitting formula.

In assay [2] the target is T1, IDO1. Description: IDO1 Cellular Assay in HeLa Cells Stimulated with IFNγ. The format is cell-based. The note with it: IFNγ 100 ng/mL, 300 uM L-tryptophan, about 48 hours, read-out: IDO HeLa Cell Assay, IC50. As to the method:
Biological Assays IDO1 Cellular Assay in HeLa Cells Stimulated with IFNγ
HeLa cells were cultured in complete HeLa culture medium (90% EMEM, 10% heat-inactivated fetal bovine serum) and expanded to about 1×10^9 cells. The cells were then collected and frozen down at 1×10^7 cells/vial in 1 mL frozen medium (90% complete HeLa culture medium, 10% DMSO).
Compounds to be tested were serially diluted in ten 3-fold steps in DMSO starting from 10 mM DMSO stocks in Echo low volume plate(s). Compound dilutions or DMSO alone were then dispensed from the dilution plate(s) into Greiner black 384-well assay plate(s) (catalog #781086, 50 nL/well) using an Echo 550 acoustic liquid handler (Labcyte).
Frozen HeLa cells were thawed and transferred into HeLa assay medium (99% complete HeLa culture medium, 1% Pen/Strep) with 20 mL medium/vial of cells. The cells were spun down at 250 g in a table top centrifuge for 5 min and suspended in same volume of HeLa assay medium. The cells were then counted and adjusted to a density of 2×10^5 cells/mL in HeLa assay medium. Sterile L-tryptophan were added to the cells with final concentration of 300 uM L-tryptophan. A small aliquot (2 mL/plate) of HeLa cells were set aside and were not treated with IFNγ, to serve as the Max-E control.
HeLa cells with and without IFNγ were dispensed to the respective wells of 384-well assay plates containing the compounds. The plates were incubated for about 48 hours at a 37° C., 5% CO2 incubator. Afterwards, 12 μL of 0.5 M methyl isonipecotate in dimethyl sulfoxide were added into each well and the plates were sealed and incubated at 37° C. without CO2 overnight. The plates were centrifuged for 1 min at 200×g. The resulting fluorescence was measured in a Spectramax plate reader (Molecular Devices) with a 400 nm excitation filter and a 510 nm emission filter.
The fluorescence intensity of each well was corrected for the background observed in wells with non-IFNγ-treated cells and was expressed as a fraction of the intensity observed in wells of IFNγ-treated cells and DMSO only. Potencies were calculated by linear least squares fit to the four parameter logistic IC50 equation.

T1 sequence (P14902 whole entry): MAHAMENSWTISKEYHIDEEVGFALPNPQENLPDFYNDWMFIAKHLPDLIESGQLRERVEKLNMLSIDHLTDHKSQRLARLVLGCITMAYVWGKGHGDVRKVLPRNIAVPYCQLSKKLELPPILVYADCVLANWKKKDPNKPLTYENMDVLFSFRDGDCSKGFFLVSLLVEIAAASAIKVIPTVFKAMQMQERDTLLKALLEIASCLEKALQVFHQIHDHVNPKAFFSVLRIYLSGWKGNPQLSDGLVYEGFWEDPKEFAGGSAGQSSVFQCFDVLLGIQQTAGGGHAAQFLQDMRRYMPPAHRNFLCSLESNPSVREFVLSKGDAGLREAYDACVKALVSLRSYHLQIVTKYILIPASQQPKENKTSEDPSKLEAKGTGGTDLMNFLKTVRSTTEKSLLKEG

As for `N#Cc1cccc(C(=O)Nc2ccc(C3(c4nc5cc(C#N)cnc5[nH]4)CCC3)cc2F)c1` [Example 17, 3-Cyano-N-(4-(1-(6-cyano-3H-imidazo[4,5-b]pyridin-2-yl)cyclobutyl)-2-fluorophenyl)benzamide], the results for the 50% inhibitory concentration (IC50) in assay [1] and in assay [2] were 118 nM and 1.71 nM, respectively.
In the case of `Cc1cc(OC(F)F)nc(C)c1-c1ccc(C2(c3nc4cc(Cl)ccc4[nH]3)CCC2)cc1` [Example 48, 5-chloro-2-(1-{4-[6-(difluoromethoxy)-2,4-dimethylpyridin-3-yl]phenyl}cyclobutyl)-1H-benzimidazole], the 50% inhibitory concentration (IC50) in assay [1] was 130 nM; in assay [2], 2.44 nM.
For the compound `COc1cc(C)c(-c2ccc(C3(c4nc5cc(C(F)(F)F)cnc5[nH]4)COC3)cc2)c(C)n1` [Example 43, 2-{3-[4-(6-methoxy-2,4-dimethylpyridin-3-yl)phenyl]oxetan-3-yl}-6-(trifluoromethyl)-3H-imidazo[4,5-b]pyridine], the IC50 in assay [1] is 606 nM; in assay [2] it was 2.81 nM.
On to `O=C(Nc1ccc(C2(c3nc4ncccc4[nH]3)CCC2)cc1)c1cccc(Cl)c1` [Example 5, N-(4-(1-(1H-imidazo[4,5-b]pyridin-2-yl)cyclobutyl)phenyl)-3-chlorobenzamide], for which the figures for the IC50 in assay [1] and in assay [2] were 192 nM and 2.85 nM, respectively.
In the case of `OCc1cc(C(F)(F)F)ncc1-c1ccc(C2(c3nc4ccc(Cl)cc4[nH]3)CCC2)cc1` [Example 52, [5-{4-[1-(6-chloro-1H-benzimidazol-2-yl)cyclobutyl]phenyl}-2-(trifluoromethyl)pyridin-4-yl]methanol], the IC50 came to 91 nM in assay [1] and 1.1 nM in assay [2].
Consider `Cc1cc(C2CC2)ncc1-c1ccc(C2(c3nc4ncc(C#N)cc4[nH]3)CCC2)cc1` [Example 39, 2-(1-(4-(6-Cyclopropyl-4-methylpyridin-3-yl)phenyl)cyclobutyl)-1H-imidazo[4,5-b]pyridine-6-carbonitrile], for which the IC50 in assay [1] was 182 nM; in assay [2], 3.6 nM.
As for `Cc1cc(OC(F)F)ncc1-c1ccc(C2(c3nc4cc(C(F)(F)F)cnc4[nH]3)COC2)cc1` [Example 44, 2-(3-{4-[6-(difluoromethoxy)-4-methylpyridin-3-yl]phenyl}oxetan-3-yl)-6-(trifluoromethyl)-3H-imidazo[4,5-b]pyridine], the IC50 in assay [1] stood at 1660 nM; in assay [2], 2.22 nM.
The like results for `N#Cc1cccc(C(=O)Nc2ccc(C3(c4nc5cc(C(F)(F)F)cnc5[nH]4)CCC3)cc2F)c1` [Example 19, 3-cyano-N-(2-fluoro-4-{1-[6-(trifluoromethyl)-3H-imidazo[4,5-b]pyridin-2-yl]cyclobutyl}phenyl) benzamide] were, in that order, 43.7 nM and 0.944 nM.
As to `OCc1cc(OC(F)F)ncc1-c1ccc(C2(c3nc4cc(Cl)ccc4[nH]3)CCC2)cc1` [Example 47, [5-{4-[1-(5-chloro-1H-benzimidazol-2-yl)cyclobutyl]phenyl}-2-(difluoromethoxy)pyridin-4-yl]methanol], the 50% inhibitory concentration (IC50) was 191 nM in assay [1] and 3.94 nM in assay [2].
Consider `N#Cc1cccc(C(=O)Nc2ccc(C3(c4nc5cc(Cl)cnc5[nH]4)CCC3)cc2F)c1` [Example 18, N-{4-[1-(6-chloro-3H-imidazo[4,5-b]pyridin-2-yl)cyclobutyl]-2-fluorophenyl}-3-cyanobenzamide], for which the concentration for half-maximal inhibition (IC50) came out at 103 nM in assay [1] and 0.736 nM in assay [2].
The like results for `O=C(Nc1cccc(Cl)c1)c1ccc(C2(c3nc4ncc(C(F)(F)F)cc4[nH]3)CCC2)cc1` [Example 27, N-(3-chlorophenyl)-4-(1-(6-(trifluoromethyl)-1H-imidazo[4,5-b]pyridin-2-yl)cyclobutyl)benzamide] were, in that order, 169 nM and 1.48 nM.
On to `N#Cc1cccc(C(=O)Nc2ccc(C3(c4nc5ccc(C(F)(F)F)cc5[nH]4)CCC3)cc2)c1` [Example 7, 3-cyano-N-(4-{1-[6-(trifluoromethyl)-1H-benzimidazol-2-yl]cyclobutyl}phenyl)benz-amide], for which the concentration for half-maximal inhibition (IC50) in assay [1] was 40.3 nM; in assay [2] it was 1.1 nM.
Regarding `N#Cc1cccc(C(=O)Nc2ccc(C3(c4nc5ncc(C#N)cc5[nH]4)CCC3)cc2)c1` [Example 3, 3-Cyano-N-(4-(1-(6-cyano-1H-imidazo[4,5-b]pyridin-2-yl)cyclobutyl)phenyl)benzamide], the half-maximal inhibitory concentration (IC50) in assay [1] was 75.1 nM; in assay [2] it was 3.97 nM.
With `CC(C)(O)c1cc(C(F)(F)F)ncc1-c1ccc(C2(c3nc4cc(Cl)ccc4[nH]3)CCC2)cc1` [Example 49, 2-[5-{4-[1-(5-chloro-1H-benzimidazol-2-yl)cyclobutyl]phenyl}-2-(trifluoromethyl)pyridin-4-yl]propan-2-ol], the half-inhibitory concentration (IC50) in assay [1] was found to be 72.9 nM; in assay [2] it was 1.7 nM.
